The values below come from patent publication US20210238187A1, “AZIRIDINE CONTAINING EPOTHILONE ANALOGS, METHODS OF SYNTHESIS, METHODS OF TREATMENT, AND DRUG CONJUGATES” (WILLIAM MARSH RICE UNIVERSITY, priority 2017, published 2021).

One test has as its system NCI/ADR-RES. As to the kind of experiment: Cytotoxicity (GI50) assay, NCI/ADR-RES. The test is classed as cell-based, human. The following applies: Homo sapiens, NCI/ADR-RES, read-out: Cancer cell lines GI50, NCI/ADR-RES.
In another test the test system is Tubulin. The test can be described thus: Tubulin assembly induction. The class given is biochemical. Conditions: […].
The test system of the next test is MDA-MB-435. The test can be described thus: Cytotoxicity (GI50) assay, MDA-MB-435. The test is classed as cell-based, human. The following applies: Homo sapiens, MDA-MB-435, read-out: Cancer cell lines GI50, MDA-MB-435.
The next test deals with MES SA. As to the kind of experiment: Cytotoxicity assay (CellTiter-Glo), MES SA. The test is classed as cell-based, human. Conditions: Homo sapiens, MES-SA, 72 h, read-out: Cancer cell lines IC50, MES SA.
Another test deals with HEK 293T. As to the kind of experiment: Cytotoxicity assay (CellTiter-Glo), HEK 293T. The class given is cell-based. The following applies: Homo sapiens, 72 h, read-out: Cancer cell lines IC50, HEK 293T.
For another test, the system named is SNB-75. As to the kind of experiment: Cytotoxicity (GI50) assay, SNB-75. The class given is cell-based, human. The following applies: Homo sapiens, SNB-75, read-out: Cancer cell lines GI50, SNB-75.
A further test concerns MCF-7. As to the kind of experiment: Cytotoxicity (GI50) assay, MCF-7. The test is classed as cell-based, human. The following applies: Homo sapiens, MCF7, read-out: Cancer cell lines GI50, MCF-7.
For a further test, the system named is OVCAR-8. The test can be described thus: Cytotoxicity (GI50) assay, OVCAR-8. The test is classed as cell-based, human. The following applies: Homo sapiens, OVCAR-8, read-out: Cancer cell lines GI50, OVCAR-8.
The subject of a further test is MES SA DX. The test can be described thus: Cytotoxicity assay (CellTiter-Glo), MES SA DX. The test is classed as cell-based, human. Conditions: Homo sapiens, MES-SA, 72 h, read-out: Cancer cell lines IC50, MES SA DX.

pEC50, pIC50: −log10 of the molar value.

On to `C/C(=C\c1csc(CCO)n1)[C@@H]1C[C@@H]2N(CCO)[C@]2(C)CCC[C@H](C)[C@H](O)[C@@H](C)C(=O)C(C)(C)[C@@H](O)CC(=O)O1` (stereo partly drawn) [compound 19, (1S,3S,7S,10R,11S,12S,16R)-7,11-Dihydroxy-17-(2-hydroxyethyl)-3-{(1E)-1-[2-(2-hydroxyethyl)-1,3-thiazol-4-yl]prop-1-en-2-yl}-8,8,10,12,16-pentamethyl-4-oxa-17-azabicyclo-[14.1.0]heptadecane-5,9-dione], for which the GI50 in the test on NCI/ADR-RES is 4800 nM; with MDA-MB-435 it was 12 nM; in the test with SNB-75 it was 36 nM; in the test with MCF-7, 40 nM; in the test on OVCAR-8 it was 38 nM. In the test with Tubulin, this compound showed a pEC50 of less than 4.22. In addition, the results for the pIC50 in the test on MES SA, with HEK 293T and with MES SA DX were 8.30, 8.47 and less than 6.00, respectively.

On to `C/C(=C\c1csc(-c2nc(C)cs2)n1)[C@@H]1C[C@@H]2N(CCO)[C@]2(C)CCC[C@H](C)[C@H](O)[C@@H](C)C(=O)C(C)(C)[C@@H](O)CC(=O)O1` (stereo partly drawn) [compound 22, (1S,3S,7S,10R,11S,12S,16R)-7,11-Dihydroxy-17-(2-hydroxyethyl)-8,8,10,12,16-pentamethyl-3-[(1E)-1-(4′-methyl-2,2′-bi-1,3-thiazol-4-yl)prop-1-en-2-yl]-4-oxa-17-azabicyclo[14.1.0]-heptadecane-5,9-dione], for which the GI50 is 240 nM in the test with NCI/ADR-RES; 4 nM in the test on MDA-MB-435; 18 nM with SNB-75; 7.5 nM in the test with MCF-7; 18 nM in the test on OVCAR-8. Further, the pEC50 in the test with Tubulin was 4.77. Further, the pIC50 is 8.73 in the test with MES SA, 8.81 with HEK 293T and 6.41 with MES SA DX.

As to `C/C(=C\c1ccn(Cn2cccn2)n1)[C@@H]1C[C@@H]2N(CCO)[C@]2(C)CCC[C@H](C)[C@H](O)[C@@H](C)C(=O)C(C)(C)[C@@H](O)CC(=O)O1` (stereo partly drawn) [compound 25, (1S,3S,7S,10R,11S,12S,16R)-7,11-Dihydroxy-17-(2-hydroxyethyl)-8,8,10,12,16-pentamethyl-3-{(1E)-1-[1-(1H-pyrazol-1-ylmethyl)-1H-pyrazol-3-yl]prop-1-en-2-yl}-4-oxa-17-azabicyclo-[14.1.0]heptadecane-5,9-dione], the GI50 was greater than 5000 nM with NCI/ADR-RES; 19 nM in the test on MDA-MB-435; 24 nM in the test on SNB-75; 32 nM in the test with MCF-7; 130 nM in the test with OVCAR-8. For the same compound, the pEC50 in the test on Tubulin is less than 4.22. Further, the pIC50 in the test on MES SA was 7.99; in the test with HEK 293T it was 7.56; with MES SA DX, less than 5.60.

As for `CC(=O)OCCN1[C@H]2C[C@@H](/C(C)=C/c3ccn(Cn4cccn4)n3)OC(=O)C[C@H](O)C(C)(C)C(=O)[C@H](C)[C@@H](O)[C@@H](C)CCC[C@]21C` (stereo partly drawn) [compound 26, 2-[(1S,3S,7S,10R,11S,12S,16R)-7,11-Dihydroxy-8,8,10,12,16-pentamethyl-5,9-dioxo-3-{(1E)-1-[1-(1H-pyrazol-1-ylmethyl)-1H-pyrazol-3-yl]prop-1-en-2-yl}-4-oxa-17-azabicyclo[14.1.0]heptadec-17-yl]ethyl acetate], the GI50 with NCI/ADR-RES was 2700 nM; in the test with MDA-MB-435, 5.5 nM; in the test on SNB-75, 50 nM; in the test on MCF-7, 38 nM; in the test with OVCAR-8 it was 38 nM. For the same compound, the pEC50 in the test on Tubulin was 4.40. Further, the pIC50 with MES SA was 8.23; with HEK 293T, 8.76; with MES SA DX, less than 6.40.

Regarding `C/C(=C\c1cnon1)[C@@H]1C[C@@H]2N(CCO)[C@]2(C)CCC[C@H](C)[C@H](O)[C@@H](C)C(=O)C(C)(C)[C@@H](O)CC(=O)O1` (stereo partly drawn) [compound 27, (1S,3S,7S,10R,11S,12S,16R)-7,11-Dihydroxy-17-(2-hydroxyethyl)-8,8,10,12,16-pentamethyl-3-[(1E)-1-(1,2,5-oxadiazol-3-yl)prop-1-en-2-yl]-4-oxa-17-azabicyclo[14.1.0]heptadecane-5,9-dione], the GI50 was greater than 5000 nM in the test on NCI/ADR-RES; 120 nM in the test with MDA-MB-435; 450 nM in the test on SNB-75; 140 nM in the test on MCF-7; 580 nM with OVCAR-8. Also, the pEC50 with Tubulin was less than 4.22. Further, the pIC50 in the test with MES SA is 7.41; in the test with HEK 293T, 7.93; in the test with MES SA DX, no more than 5.60.

For `C/C(=C\c1cnsn1)[C@@H]1C[C@@H]2N(CCO)[C@]2(C)CCC[C@H](C)[C@H](O)[C@@H](C)C(=O)C(C)(C)[C@@H](O)CC(=O)O1` (stereo partly drawn) [compound 28, (1S,3S,7S,10R,11S,12S,16R)-7,11-Dihydroxy-17-(2-hydroxyethyl)-8,8,10,12,16-pentamethyl-3-[(1E)-1-(1,2,5-thiadiazol-3-yl)prop-1-en-2-yl]-4-oxa-17-azabicyclo[14.1.0]heptadecane-5,9-dione], the GI50 with NCI/ADR-RES turned out to be 680 nM; with MDA-MB-435 it was 3 nM; in the test with SNB-75 it was 8 nM; in the test on MCF-7, 4.5 nM; in the test with OVCAR-8 it was 9 nM. Besides, the negative-log EC50 (pEC50) with Tubulin was 4.41. For the same compound, the results for the negative-log IC50 (pIC50) in the test with MES SA, with HEK 293T and in the test on MES SA DX were 8.34, 8.71 and 6.58, respectively.

Turning to `C/C(=C\c1cc(C)no1)[C@@H]1C[C@@H]2N(CCO)[C@]2(C)CCC[C@H](C)[C@H](O)[C@@H](C)C(=O)C(C)(C)[C@@H](O)CC(=O)O1` (stereo partly drawn) [compound 29, (1S,3S,7S,10R,11S,12S,16R)-7,11-Dihydroxy-17-(2-hydroxyethyl)-8,8,10,12,16-pentamethyl-3-[(1E)-1-(3-methyl-1,2-oxazol-5-yl)prop-1-en-2-yl]-4-oxa-17-azabicyclo[14.1.0]heptadecane-5,9-dione], the GI50 in the test on NCI/ADR-RES amounted to 390 nM; with MDA-MB-435, 17 nM; in the test on SNB-75, 34 nM; in the test on MCF-7, 9.5 nM; in the test on OVCAR-8, 27 nM. In addition, the pEC50 in the test with Tubulin was 4.35. Also, the pIC50 in the test with MES SA is 8.18; in the test on HEK 293T, 8.78; in the test on MES SA DX, less than 7.15.

For the compound `C/C(=C\c1snnc1C)[C@@H]1C[C@@H]2N(CCO)[C@]2(C)CCC[C@H](C)[C@H](O)[C@@H](C)C(=O)C(C)(C)[C@@H](O)CC(=O)O1` (stereo partly drawn) [compound 30, (1S,3S,7S,10R,11S,12S,16R)-7,11-Dihydroxy-17-(2-hydroxyethyl)-8,8,10,12,16-pentamethyl-3-[(1E)-1-(4-methyl-1,2,3-thiadiazol-5-yl)prop-1-en-2-yl]-4-oxa-17-azabicyclo[14.1.0]heptadecane-5,9-dione], the GI50 in the test with NCI/ADR-RES came to 2800 nM; in the test with MDA-MB-435 it was 48 nM; in the test with SNB-75 it was 100 nM; in the test with MCF-7, 58 nM; in the test on OVCAR-8, 210 nM. In the test with Tubulin, the negative logarithm of the EC50 (pEC50) was less than 4.22. For the same compound, the pIC50 was 7.42 in the test on MES SA, 7.19 with HEK 293T and less than 5.60 in the test with MES SA DX.

Regarding `C/C(=C\c1cc(-c2ccc(F)cc2)on1)[C@@H]1C[C@@H]2N(CCO)[C@]2(C)CCC[C@H](C)[C@H](O)[C@@H](C)C(=O)C(C)(C)[C@@H](O)CC(=O)O1` (stereo partly drawn) [compound 31, (1S,3S,7S,10R,11S,12S,16R)-3-{(1E)-1-[5-(4-Fluorophenyl)-1,2-oxazol-3-yl]prop-1-en-2-yl}-7,11-dihydroxy-17-(2-hydroxyethyl)-8,8,10,12,16-pentamethyl-4-oxa-17-azabicyclo[14.1.0]heptadecane-5,9-dione], the GI50 in the test with NCI/ADR-RES turned out to be 50 nM; with MDA-MB-435, 11 nM; with SNB-75 it was 65 nM; in the test on MCF-7 it was 13 nM; in the test on OVCAR-8, 70 nM. Also, in the test with Tubulin, the pEC50 was 4.72. For the same compound, the values for the pIC50 in the test on MES SA, with HEK 293T and in the test on MES SA DX were 8.85, 9.49 and 7.77, respectively.

For the compound `C/C(=C\c1csc(-c2nc(C)cs2)n1)[C@@H]1C[C@@H]2N[C@]2(C)CCC[C@H](C)[C@H](O)[C@@H](C)C(=O)C(C)(C)[C@@H](O)CC(=O)O1` [compound 32, (1S,3S,7S,10R,11S,12S,16R)-7,11-Dihydroxy-8,8,10,12,16-pentamethyl-3-[(1E)-1-(4′-methyl-2,2′-bi-1,3-thiazol-4-yl)prop-1-en-2-yl]-4-oxa-17-azabicyclo[14.1.0]heptadecane-5,9-dione], the GI50 in the test with NCI/ADR-RES stood at 170 nM; with MDA-MB-435 it was 11 nM; in the test with SNB-75, 68 nM; in the test with MCF-7 it was 25 nM; in the test on OVCAR-8 it was 58 nM. In addition, in the test on Tubulin, the pEC50 was 4.37. Also, the results for the pIC50 in the test on MES SA, in the test with HEK 293T and in the test with MES SA DX were 7.59, 7.20 and less than 6.40, respectively.

`C/C(=C\c1ccn(Cn2cccn2)n1)[C@@H]1C[C@@H]2N[C@]2(C)CCC[C@H](C)[C@H](O)[C@@H](C)C(=O)C(C)(C)[C@@H](O)CC(=O)O1` [compound 33, (1S,3S,7S,10R,11S,12S,16R)-7,11-Dihydroxy-8,8,10,12,16-pentamethyl-3-{(1E)-1-[1-(1H-pyrazol-1-ylmethyl)-1H-pyrazol-3-yl]prop-1-en-2-yl}-4-oxa-17-azabicyclo[14.1.0]heptadecane-5,9-dione]: the GI50 was greater than 5000 nM in the test on NCI/ADR-RES; 160 nM with MDA-MB-435; 450 nM in the test with SNB-75; 140 nM with MCF-7; 1100 nM in the test with OVCAR-8. The same compound gave a pEC50 in the test with Tubulin of less than 4.22. The pIC50 in the test on MES SA was 6.97; in the test on HEK 293T it was 6.76; in the test with MES SA DX, less than 5.60.
